Measured values reported in patent publication US6492338B1, “Therapeutic agents” (Takara Shuzo Co., Ltd., priority 1998, dated 2002).

How the values were obtained:
[1] = test system: alcohol dehydrogenase (ADH); assay: ADH inhibitory activity, NAD/ethanol, absorbance at 340 nm; format: biochemical; settings: final concentration 10.8 μg/ml (IC50 for AR activity)
Description: Next, 2,5-dihydroxytetrahydro-2-furancarboxylic acid was added to an ADH reaction system to determine the ADH inhibitory activity.
A commercially available lyophilized product (Nacalai Tesque, code 012-83) was dissolved in water for use as ADH. NAD (Nacalai Tesque) as a hydrogen donor and ethanol (Nacalai Tesque) as a substrate for the enzyme were used.
The ADH activity was measured as follows.
50 μl of water, 20 μl of 3 mM aqueous NAD solution and 10 μl of enzyme solution were added to 100 μl of 200 mM phosphate buffer (pH 6.2). 10 μl of sterile pure water was further added to the mixture. After 10 μl of 60% ethanol was added thereto, the change in absorbance at 340 nm was monitored at room temperature for 3 minutes. The enzymatic activity was determined on the basis of the change in absorbance per minute.
Next, aqueous solution of 2,5-dihydroxytetrahydro-2-furancarboxylic acid at a final concentration of 10.8 μg/ml and sterile pure water were added to the reaction system as described above in place of 10 μl of sterile pure water. The enzymatic activity was then determined as described above. The ADH enzymatic activity inhibition rate was calculated according to the above-mentioned equation based on the enzymatic activity.

[2] = biological target: T1, Aldose reductase (AR) (Homo sapiens, UniProt P15121); assay: AR (aldose reductase) inhibitory activity, NADPH/methylglyoxal, absorbance at 340 nm; format: biochemical
T1 construct: purchased Wako Pure Chemical Industries 012-13991
Description: 2,5-dihydroxytetrahydro-2-furancarboxylic acid was added to an AR reaction system to determine the AR inhibitory activity.
NADPH (Nacalai Tesque) as a hydrogen donor and methylglyoxal (Nacalai Tesque) as a substrate for the enzyme were used. A commercially available enzyme solution (Wako Pure Chemical Industries, code 012-13991) was diluted. for use as AR.
The AR activity was measured as follows.
40 μl of sterile pure water, 20 μl of 1 mM aqueous NADPH solution and 10 μl of enzyme dilution were added to 100 μl of 200 mM phosphate buffer (pH 6.2). 10 μl of sterile pure water was further added to the mixture. After 20 μl of 100 mM aqueous methylglyoxal solution was added thereto, the change in absorbance at 340 nm was monitored at room temperature for 3 minutes. The enzymatic activity was determined on the basis of the change in absorbance per minute. Next, aqueous solution of 2,5-dihydroxytetrahydro-2-furancarboxylic acid at a varying concentration was added to the reaction system as described above in place of 10 μl of sterile pure water. The enzymatic activity was then determined as described above.
The AR inhibitory activity of 2,5-dihydroxytetrahydro-2-furancarboxylic acid was determined based on the enzymatic activity inhibition rate calculated according to the following equation:
Enzymatic activity inhibition rate (%)={1-(enzymatic activity with the addition of aqueous 2,5-dihydroxytetrahydro-2-furancarboxylic acid solution)/(enzymatic activity with the addition of water)}×100.

ADH activity inhibition rate [1]: 7.1%
IC50 ([2]; calculated from concentration and AR activity inhibition rate of Table 1, read-out: concentration in the enzymatic reaction mixture that results in the activity inhibition rate of 50% (IC50), AR (converted)): ~72.9 µM
Activity inhibition rate (AR) ([2]; concentration in enzymatic reaction system 0.5 μg/ml): 8.1%
Activity inhibition rate (AR) ([2]; concentration in enzymatic reaction system 5 μg/ml): 34.8%
Activity inhibition rate (AR) ([2]; concentration in enzymatic reaction system 50 μg/ml): 81.6%
Activity inhibition rate (AR) ([2]; concentration in enzymatic reaction system 500 μg/ml): 96.3%
Compound: O=C(O)C1(O)CCC(O)O1 (stereo not drawn) [2,5-dihydroxytetrahydro-2-furancarboxylic acid]
